Results taken from PubChem BioAssay AID179 (DTP/NCI, 2004).
Where “and” joins values, the source holds several entries; their conditions need not be identical. Identical values can stand only once. Calls of active or inactive are those of the source.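 How the source made its calls: active means compounds giving half or more protection of infected cells from virus-caused growth loss, again on retest; inactive means the rest.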

Test system: CEM cells HIV-1 protection, formazan growth assay
Assay: NCI AIDS Antiviral Assay
Conditions: for IC50: measured here: growth of uninfected CEM cells
Procedure, shortened: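 Soluble formazan readout of cell growth; CEM cells ± HIV-1; 5 drug concs. ≥50% protection → retest; ≥50% again = moderately active; reproducible 100% = confirmed active.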

In the case of `C/C=C1\CN(C)C[C@H]2Cc3c(n(OC)c4ccccc34)C(=O)C[C@@H]12`, the EC50 is reported as over 24 µM and the IC50 is reported as over 24 µM.
`COc1cc(C(=O)NC(CCN)(c2ccccc2)c2ccccc2)cc(OC)c1OC` showed an EC50 of over 200 µM and an IC50 of 67.6 µM.
`NS(=O)(=O)c1nnc(NS(=O)(=O)c2cccc3cccnc23)s1` gave an EC50 of over 200 µM and an IC50 of over 200 µM.
With `O=C(CCCN1CCC(O)(c2ccc(Cl)cc2)CC1)c1ccc(F)cc1` the EC50 was over 132 µM.
`O=[N+]([O-])c1c[c]([Sb](=[O])([OH])[OH])ccc1Cl` was tested, and the EC50 was over 200 µM and the IC50 was over 200 µM.
Work on `S=c1sscc1-c1ccccc1` yielded an EC50 of over 200 µM and an IC50 of 186 µM.
`COI1NC(=O)c2ccccc21` was tested, and the EC50 was 17.4 µM and the IC50 was 295 µM.
`O=C1C=CC=CC2CC=C[C@@H](O)C12` (stereo partly specified) showed an EC50 of over 251 µM and an IC50 of 12 µM.
`O=C1/C(=C/c2cccc3ccccc23)Cc2ccccc21` showed an EC50 of over 200 µM and an IC50 of 97.7 µM.
`CN(C)c1ccc(/C=C/C(=O)c2ccc(O)cc2)cc1` was tested, and the EC50 was over 200 µM and the IC50 was 3.31 µM.
`CC(C)CCCC(C)[C@H]1CCC2[C@@H]3CCC4Nc5c(cnn5-c5ccccc5)C[C@]4(C)C3CC[C@@]21C` (stereo partly specified) was tested, and the outcome was “inactive”.
`CC(CCc1nc2ccccc2o1)C1CCC2C3CC[C@@H]4C[C@H](O)CC[C@]4(C)C3C[C@H](O)[C@]12C` (stereo partly specified) gave an EC50 of over 50.1 µM and an IC50 of 7.24 µM.
Work on `Cc1nc2ccccc2c(=O)n1/N=C/c1ccc(N(C)C)cc1` yielded an EC50 of over 200 µM and an IC50 of over 200 µM.
`CC(=O)N(CCN)CCN` was tested, and the outcome was “inactive”.
`CO/C(=N\N=C(/C)C(F)(F)F)c1ccncc1` was tested, and the EC50 was over 200 µM and the IC50 was over 200 µM.
Work on `O=C(O)CC1CC=CCC1CC(=O)O` (stereo unspecified) yielded an EC50 of over 200 µM and an IC50 of over 200 µM.
`O=C1C=C(NC(c2ccccc2)c2nc3ccccc3[nH]2)C(c2ccccc2)N1c1ccccc1` (stereo unspecified) was tested, and the outcome was “inactive”.
For `COC(=O)c1cccc2c3ccccc3c3ccccc3c12`, the outcome was “inactive”.
For `[Se]c1nc2ccccc2o1`, the EC50 was over 224 µM and the IC50 was 53.7 µM.
For `O=C1c2ccccc2C(=O)N1CC[P+](c1ccccc1)(c1ccccc1)c1ccccc1`, the EC50 was over 200 µM and the IC50 was > 200 µM and 107 µM.
`CC(=N/NC(=S)N1CCCCCC1)/C(C)=N\NC(=S)N1CCCCCC1` gave an EC50 of over 100 µM and an IC50 of 8.71 µM.
Work on `COc1cc2c(c3c1[C@@H](O)[C@@H](C)[C@@H](C)O3)C=CC(C)(C)O2` yielded an EC50 of over 200 µM and an IC50 of 75.9 µM.
With `CC1(C)Cc2cc(C(=O)O)c3c(c2C1=O)COCC3` the outcome was “inactive”.
With `CC(=O)O[C@H]1CC[C@@]2(C)C(CC[C@]3(C)C2CC[C@]2(C)Oc4c(C)cc(O)cc4C[C@@H]23)C1(C)C` (stereo partly specified) the outcome was “inactive”.
In the case of `Cn1c(C2CCCc3c2c2ccccc2n3C)cc2ccccc21` (stereo unspecified), the EC50 is reported as over 16.6 µM and the IC50 is reported as over 16.6 µM.
`Cn1c(=O)c2/c(n(C)c1=O)=N\C=c1\c(=O)n(C)c(=O)n(C)\c1=N\C=2` gave an EC50 of over 182 µM and an IC50 of over 182 µM.
Molecule `C=CCCON(C(=O)OC(C)(C)C)c1ccccc1` has an EC50 of over 200 µM and an IC50 of 57.5 µM.
`Nn1c(Sc2nc3ccccc3c(=O)n2N)nc2ccccc2c1=O` was tested, and the EC50 was over 200 µM and the IC50 was 3.8 µM.
`OCC1CC(F)C(n2cnc3c(F)ncnc32)O1` (stereo unspecified) was tested, and the EC50 was over 49 µM and the IC50 was 36.3 µM.
In the case of `NC(=O)CN(CC(N)=O)C(N)=O`, the EC50 is reported as over 724 µM and the IC50 is reported as over 724 µM.
`O=C(CN1CCCCC1)c1ccc(CCc2ccc(C(=O)CN3CCCCC3)cc2)cc1` was tested, and the EC50 was over 200 µM and the IC50 was 95.5 µM.
`Cc1cccnc1NC(=S)Nc1cccc(C(F)(F)F)c1` gave an EC50 of over 200 µM and an IC50 of 16.2 µM.
`O=C(CCCn1cnc([N+](=O)[O-])n1)NCCCn1ccnc1[N+](=O)[O-]` gave an EC50 of over 200 µM and an IC50 of over 200 µM.
Work on `Cc1cn(C2CC3C(COC(C)N3O)O2)c(=O)[nH]c1=O` (stereo unspecified) yielded an EC50 of over 200 µM and an IC50 of over 200 µM.
